The values that follow come from patent publication US6472418B1, “Non-peptide NK1 receptors antagonists” (Warner-Lambert Company, priority 1998, dated 2002).

Bounds are passed on as bounds.

In this assay the target is T1, Human NK1 Receptor (Homo sapiens, UniProt P25103).
T1 construct: endogenous in cells; host or cells: Human lymphoma IM9 cells (whole cells)
T1 sequence (P25103 whole entry): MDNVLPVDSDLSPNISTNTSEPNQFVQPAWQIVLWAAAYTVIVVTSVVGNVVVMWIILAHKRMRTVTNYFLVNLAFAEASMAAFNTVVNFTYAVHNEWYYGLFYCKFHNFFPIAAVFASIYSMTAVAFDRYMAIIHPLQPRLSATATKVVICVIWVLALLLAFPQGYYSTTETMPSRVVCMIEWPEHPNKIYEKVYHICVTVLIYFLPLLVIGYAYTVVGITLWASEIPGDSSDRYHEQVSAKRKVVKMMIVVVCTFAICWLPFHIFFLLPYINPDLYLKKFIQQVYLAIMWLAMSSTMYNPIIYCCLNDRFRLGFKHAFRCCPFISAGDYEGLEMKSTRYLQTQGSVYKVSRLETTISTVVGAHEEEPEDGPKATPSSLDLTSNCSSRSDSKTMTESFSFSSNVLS
The assay can be described thus: In Vitro Human NK1 Receptor Binding Assay ([125I]Bolton-Hunter substance P displacement, IM9 cells). The following applies: human NK1 receptor, IM9 cells, [125I]Bolton-Hunter substance P; read-out: IC50 (nM) hNK1. In outline: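 Radioligand displacement on whole IM9 human lymphoma cells (2.5×10^6 cells/mL) using [125I]Bolton-Hunter substance P (0.05-0.1 nM), 50 min at 21° C in Tris pH 7.4/MnCl2 buffer with protease inhibitors. Non-specific binding defined by […] [Sar9, Met(O2)11] substance P. Filtration, gamma counting, iterative curve fitting.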
As usually defined, the IC50 is the concentration that inhibits the measured activity by half. For `CN1Cc2ccccc2CC1CNC(=O)C(C)(Cc1c[nH]c2ccccc12)NCc1cc2ccccc2o1` (centres unmarked) [compound 106, 2-[(Benzofuran-2-ylmethyl)-amino]-3-(1H-indol-3-yl)-2-methyl-N-(2-methyl-1,2,3,4-tetrahydro-isoquinolin-3-ylmethyl)-propionamide], the 50% inhibitory concentration (IC50) was found to be 4630 nM.

In the case of `CC(Cc1c[nH]c2ccccc12)(NCc1cc2ccccc2o1)C(=O)NC1CC1c1ccccc1` (centres unmarked) [compound 107, 2-[(Benzofuran-2-ylmethyl)-amino]-3-(1H-indol-3-yl)-2-methyl-N-(2-phenyl-cyclopropyl)-propionamide], the IC50 worked out at 4150 nM.

Take `CC(Cc1c[nH]c2ccccc12)(NCc1cc2ccccc2o1)C(=O)NCC1Cc2ccccc2CN1` (centres unmarked) [compound 108, 2-[(Benzofuran-2-ylmethyl)-amino]-3-(1H-indol-3-yl)-2-methyl-N-(1,2,3,4-tetrahydro-isoquinolin-3-ylmethyl)-propionamide]: the 50% inhibitory concentration (IC50) came out at 4570 nM.

As for `CC(Cc1c[nH]c2ccccc12)(NCc1cc2ccccc2o1)C(=O)NCc1cc(Cl)sc1Cl` (centres unmarked) [compound 109, 2-[(Benzofuran-2-ylmethyl)-amino]-N-(2,5-dichloro-thiophen-3-ymethyl)-3-(1H-indol-3-yl)-2-methyl-propionamide], the IC50 was 279 nM. The result for `CC(Cc1c[nH]c2ccccc12)(NCc1cc2ccccc2o1)C(=O)NCC1(c2ccccc2)CC1` (centres unmarked) [compound 110, 2-[(Benzofuran-2-ylmethyl)-amino]-3-(1H-indol-3-yl)-2-methyl-N-(1-phenyl-cyclopropylmethyl)-propionamide] reads 1140 nM; that for `CC(Cc1c[nH]c2ccccc12)(NCc1cc2ccccc2o1)C(=O)NC1CCc2ccccc2C1` (centres unmarked) [compound 111, 2-[(Benzofuran-2-ylmethyl)-amino]-3-(1H-indol-3-yl)-2-methyl-N-(1,2,3,4-tetrahydro-naphthalen-2-yl)-propionamide], over 10000 nM.

Consider `CC(Cc1c[nH]c2ccccc12)(NCc1cc2ccccc2o1)C(=O)NCc1cccc([N+](=O)[O-])c1` (centres unmarked) [compound 112, 2-[(Benzofuran-2-ylmethyl)-amino]-3-(1H-indol-3-yl)-2-methyl-N-(3-nitro-benzyl)-propionamide], for which the half-inhibitory concentration (IC50) was found to be 12 nM. As to `CC(Cc1c[nH]c2ccccc12)(NCc1cc2ccccc2o1)C(=O)NC1Cc2ccccc2C1` (centres unmarked) [compound 113, 2-[(Benzofuran-2-ylmethyl)-amino]-N-indan-2-yl-3-(1H-indol-3-yl)-2-methyl-propionamide], the IC50 was determined as 463 nM. The result for `CCC(NC(=O)C(C)(Cc1c[nH]c2ccccc12)NCc1cc2ccccc2o1)c1cccs1` (centres unmarked) [compound 114, 2-[(Benzofuran-2-ylmethyl)-amino]-3-(1H-indol-3-yl)-2-methyl-N-(1-thiophen-2-yl-propyl)-propionamide] reads 128 nM. The result for `CC(Cc1c[nH]c2ccccc12)(NCc1cc2ccccc2o1)C(=O)NCCc1ccco1` (centres unmarked) [compound 115, 2-[(Benzofuran-2-ylmethyl)-amino]-N-(2-furan-2-yl-ethyl)-3-(1H-indol-3-yl)-2-methyl-propionamide] reads 154 nM; that for `CC(Cc1c[nH]c2ccccc12)(NCc1cc2ccccc2o1)C(=O)NCC1(O)CCCCC1` (centres unmarked) [compound 116, 2-[(Benzofuran-2-ylmethyl)-amino]-N-(1-hydroxy-cyclohexylmethyl)-3-(1H-indol-3-yl)-2-methyl-propionamide], over 10000 nM.

In the case of `CC(Cc1c[nH]c2ccccc12)(NCc1cc2ccccc2o1)C(=O)NCC1(c2ccco2)CCC1` (centres unmarked) [compound 117, 2-[(Benzofuran-2-ylmethyl)-amino]-N-(1-furan-2-yl-cyclobutylmethyl)-3-(1H-indol-3-yl)-2-methyl-propionamide], the IC50 is over 10000 nM. The result for `CC(NC(=O)C(C)(Cc1c[nH]c2ccccc12)NCc1cc2ccccc2o1)c1ccc(Cl)s1` (centres unmarked) [compound 118, 2-[(Benzofuran-2-ylmethyl)-amino]-N-[1-(5-chloro-thiophen-2-yl)-ethyl]-3-(1H-indol-3-yl)-2-methyl-propionamide] reads 45 nM. The result for `CC(Cc1c[nH]c2ccccc12)(NCc1cc2ccccc2o1)C(=O)NCc1ccc([N+](=O)[O-])cc1` (centres unmarked) [compound 119, 2-[(Benzofuran-2-ylmethyl)-amino]-3-(1H-indol-3-yl)-2-methyl-N-(4-nitro-benzyl)-propionamide] reads 89 nM; that for `CC(Cc1n[nH]c2ccccc12)NC(=O)C(C)(Cc1c[nH]c2ccccc12)NCc1cc2ccccc2o1` (centres unmarked) [compound 120, 2-[(Benzofuran-2-ylmethyl)-amino]-N-[2-(1H-indazol-3-yl)-1-methyl-ethyl]-3-(1H-indol-3-yl)-2-methyl-propionamide], 2650 nM. With `CC(Cc1c[nH]c2ccccc12)(NCc1cc2ccccc2o1)C(=O)NCCn1cccc1` (centres unmarked) [compound 121, 2-[(Benzofuran-2-ylmethyl)-amino]-3-(1H-indol-3-yl)-2-methyl-N-(2-pyrrol-1-yl-ethyl)-propionamide], the concentration for half-maximal inhibition (IC50) was found to be 654 nM.

Consider `CC(NC(=O)C(C)(Cc1c[nH]c2ccccc12)NCc1cc2ccccc2o1)c1cc(Cl)sc1Cl` (centres unmarked) [compound 122, 2-[(Benzofuran-2-ylmethyl)-amino]-N-[1-(2,5-dichloro-thiophen-3-yl)-ethyl]-3-(1H-indol-3-yl)-2-methyl-propionamide], for which the IC50 amounted to 442 nM. The value for `CC(Cc1c[nH]c2ccccc12)(NCc1cc2ccccc2o1)C(=O)NCCN1CCC2CCCCC21` (centres unmarked) [compound 123, 2-[(Benzofuran-2-ylmethyl)-amino]-3-(1H-indol-3-yl)-2-methyl-N-[2-(octahydro-indol-1-yl)-ethyl]-propionamide] was over 10000 nM. The value for `CC(NC(=O)C(C)(Cc1c[nH]c2ccccc12)NCc1cc2ccccc2o1)c1ccc([N+](=O)[O-])cc1` (centres unmarked) [compound 124, 2-[(Benzofuran-2-ylmethyl)-amino]-3-(1H-indol-3-yl)-2-methyl-N-[1-(4-nitro-phenyl)-ethyl]-propionamide] was 92 nM; that for `CC(Cc1c[nH]c2ccccc12)(NCc1cc2ccccc2o1)C(=O)NCCN1CCCCC1` (centres unmarked) [compound 125, 2-[(Benzofuran-2-ylmethyl)-amino]-3-(1H-indol-3-yl)-2-methyl-N-(2-piperidin-1-yl-ethyl)-propionamide] was over 10000 nM; that for `CC1(CNC(=O)C(C)(Cc2c[nH]c3ccccc23)NCc2cc3ccccc3o2)OCCO1` (centres unmarked) [compound 126, 2-[(Benzofuran-2-ylmethyl)-amino]-3-(1H-indol-3-yl)-2-methyl-N-(2-methyl-[1,3]dioxolan-2-ylmethyl)-propionamide] was 6790 nM. The value for `CC(Cc1c[nH]c2ccccc12)(NCc1cc2ccccc2o1)C(=O)NCc1ccco1` (centres unmarked) [compound 127, 2-[(Benzofuran-2-ylmethyl)-amino]-N-furan-2-ylmethyl-3-(1H-indol-3-yl)-2-methyl-propionamide] was 191 nM.

As to `CC(Cc1c[nH]c2ccccc12)(NCc1cc2ccccc2o1)C(=O)NCCN1CCOCC1` (centres unmarked) [compound 128, 2-[(Benzofuran-2-ylmethyl)-amino]-3-(1H-indol-3-yl)-2-methyl-N-(2-morpholin-4-yl-ethyl)-propionamide], the IC50 is over 10000 nM.

Take `Cc1cccc(CNC(=O)C(C)(Cc2c[nH]c3ccccc23)NCc2cc3ccccc3o2)c1` (centres unmarked) [compound 129, 2-[(Benzofuran-2-ylmethyl)-amino]-3-(1H-indol-3-yl)-2-methyl-N-(3-methyl-benzyl)-propionamide]: the IC50 turned out to be 43 nM.

On to `CC(Cc1c[nH]c2ccccc12)(NCc1cc2ccccc2o1)C(=O)NC1CCc2ccccc21` (centres unmarked) [compound 130, 2-[(Benzofuran-2-ylmethyl)-amino]-N-indan-1-yl-3-(1H-indol-3-yl)-2-methyl-propionamide], for which the IC50 worked out at 163 nM. The result for `CC(Cc1c[nH]c2ccccc12)(NCc1cc2ccccc2o1)C(=O)NCC(C)(C)N1CCCCC1` (centres unmarked) [compound 131, 2-[(Benzofuran-2-ylmethyl)-amino]-3-(1H-indol-3-yl)-2-methyl-N-(2-methyl-2-piperidin-1-yl-propyl)-propionamide] reads over 10000 nM; that for `CC(Cc1c[nH]c2ccccc12)(NCc1cc2ccccc2o1)C(=O)NCCN1CCNC1=S` (centres unmarked) [compound 132, 2-[(Benzofuran-2-ylmethyl)-amino]-3-(1H-indol-3-yl)-2-methyl-N-[2-(2-thioxo-imidazolidin-1-yl)-ethyl]-propionamide], 6030 nM.

For the molecule `CC(Cc1c[nH]c2ccccc12)(NCc1cc2ccccc2o1)C(=O)NCC(C)(C)c1ccccc1` (centres unmarked) [compound 133, 2-[(Benzofuran-2-ylmethyl)-amino]-3-(1H-indol-3-yl)-2-methyl-N-(2-methyl-2-phenyl-propyl)-propionamide], the half-maximal inhibitory concentration (IC50) amounted to 4480 nM. The result for `CC(Cc1c[nH]c2ccccc12)(NCc1cc2ccccc2o1)C(=O)NCCCn1ccnc1` (centres unmarked) [compound 134, 2-[(Benzofuran-2-ylmethyl)-amino]-N-(3-imidazol-1-yl-propyl)-3-(1H-indol-3-yl)-2-methyl-propionamide] reads 5370 nM; that for `CC(Cc1c[nH]c2ccccc12)(NCc1cc2ccccc2o1)C(=O)NCC1CCCO1` (centres unmarked) [compound 135, 2-[(Benzofuran-2-ylmethyl)-amino]-3-(1H-indol-3-yl)-2-methyl-N-(tetrahydro-furan-2-ylmethyl)-propionamide], 1200 nM; that for `CC1(CNC(=O)C(C)(Cc2c[nH]c3ccccc23)NCc2cc3ccccc3o2)CCCO1` (centres unmarked) [compound 136, 2-[(Benzofuran-2-ylmethyl)-amino]-3-(1H-indol-3-yl)-2-methyl-N-(2-methyl-tetrahydro-furan-2-ylmethyl)-propionamide], over 10000 nM.

With `CC(Cc1c[nH]c2ccccc12)(NCc1cc2ccccc2o1)C(=O)NCc1cccs1` (centres unmarked) [compound 137, 2-[(Benzofuran-2-ylmethyl)-amino]-3-(1H-indol-3-yl)-2-methyl-N-thiophen-2-ylmethyl-propionamide], the half-maximal inhibitory concentration (IC50) came to 100 nM.
